Format in all cases: cell-based
The target in one experiment is T1, human TLR8 (Homo sapiens, UniProt Q9NR97).
T1 construct: host or cells: HEK-Blue cells (HEK293-derived reporter line)
T1 sequence (Q9NR97 27-1041): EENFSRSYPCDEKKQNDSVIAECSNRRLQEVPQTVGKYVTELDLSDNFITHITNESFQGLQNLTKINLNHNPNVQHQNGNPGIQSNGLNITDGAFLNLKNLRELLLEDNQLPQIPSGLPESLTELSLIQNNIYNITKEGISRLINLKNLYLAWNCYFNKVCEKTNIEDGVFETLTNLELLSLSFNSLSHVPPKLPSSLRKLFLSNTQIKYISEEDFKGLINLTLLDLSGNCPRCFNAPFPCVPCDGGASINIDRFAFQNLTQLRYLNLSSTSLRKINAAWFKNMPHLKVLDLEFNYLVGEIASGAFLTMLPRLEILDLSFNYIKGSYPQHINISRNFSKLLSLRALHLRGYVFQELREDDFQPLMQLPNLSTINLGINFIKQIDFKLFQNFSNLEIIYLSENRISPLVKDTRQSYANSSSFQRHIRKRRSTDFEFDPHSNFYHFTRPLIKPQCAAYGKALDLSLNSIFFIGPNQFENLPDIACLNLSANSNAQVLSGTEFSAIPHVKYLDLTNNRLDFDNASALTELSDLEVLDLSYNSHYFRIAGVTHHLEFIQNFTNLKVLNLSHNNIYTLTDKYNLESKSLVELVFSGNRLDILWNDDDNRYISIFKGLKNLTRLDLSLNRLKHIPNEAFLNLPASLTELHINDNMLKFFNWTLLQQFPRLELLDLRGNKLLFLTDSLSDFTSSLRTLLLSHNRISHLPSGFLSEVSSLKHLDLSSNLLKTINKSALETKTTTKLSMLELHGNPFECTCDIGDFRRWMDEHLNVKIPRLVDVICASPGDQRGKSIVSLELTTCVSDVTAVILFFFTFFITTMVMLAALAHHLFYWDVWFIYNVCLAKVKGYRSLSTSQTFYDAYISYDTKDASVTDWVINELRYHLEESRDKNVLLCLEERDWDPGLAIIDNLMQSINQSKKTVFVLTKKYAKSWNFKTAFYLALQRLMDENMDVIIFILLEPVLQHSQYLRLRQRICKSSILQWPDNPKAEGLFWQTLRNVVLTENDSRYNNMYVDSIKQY
Put plainly: TLR8 inhibition reporter assay (HEK-Blue cells, SEAP reporter, R848 stimulation). Particulars: HEK-Blue cells overexpressing human TLR8, SEAP reporter, R848 15.9 μM. In a few lines:
(§1)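 Read-out is SEAP activity in HEK-Blue detection medium after 22 h at 37 °C, converted to percent inhibition against agonist-plus-DMSO and reference-inhibitor controls. Cells saw compound (0.05 nM–50 μM, 30 min, room temperature) before gardiquimod 7.5 μM, R848 15.9 μM or ODN2006 5 nM for TLR7, TLR8 and TLR9, respectively.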
(A reporter such as luciferase makes a cellular process visible.)

In another experiment the target is T2, human TLR9 (Homo sapiens, UniProt Q9NR96).
T2 construct: host or cells: HEK-Blue cells (HEK293-derived reporter line)
T2 sequence (Q9NR96 26-1032): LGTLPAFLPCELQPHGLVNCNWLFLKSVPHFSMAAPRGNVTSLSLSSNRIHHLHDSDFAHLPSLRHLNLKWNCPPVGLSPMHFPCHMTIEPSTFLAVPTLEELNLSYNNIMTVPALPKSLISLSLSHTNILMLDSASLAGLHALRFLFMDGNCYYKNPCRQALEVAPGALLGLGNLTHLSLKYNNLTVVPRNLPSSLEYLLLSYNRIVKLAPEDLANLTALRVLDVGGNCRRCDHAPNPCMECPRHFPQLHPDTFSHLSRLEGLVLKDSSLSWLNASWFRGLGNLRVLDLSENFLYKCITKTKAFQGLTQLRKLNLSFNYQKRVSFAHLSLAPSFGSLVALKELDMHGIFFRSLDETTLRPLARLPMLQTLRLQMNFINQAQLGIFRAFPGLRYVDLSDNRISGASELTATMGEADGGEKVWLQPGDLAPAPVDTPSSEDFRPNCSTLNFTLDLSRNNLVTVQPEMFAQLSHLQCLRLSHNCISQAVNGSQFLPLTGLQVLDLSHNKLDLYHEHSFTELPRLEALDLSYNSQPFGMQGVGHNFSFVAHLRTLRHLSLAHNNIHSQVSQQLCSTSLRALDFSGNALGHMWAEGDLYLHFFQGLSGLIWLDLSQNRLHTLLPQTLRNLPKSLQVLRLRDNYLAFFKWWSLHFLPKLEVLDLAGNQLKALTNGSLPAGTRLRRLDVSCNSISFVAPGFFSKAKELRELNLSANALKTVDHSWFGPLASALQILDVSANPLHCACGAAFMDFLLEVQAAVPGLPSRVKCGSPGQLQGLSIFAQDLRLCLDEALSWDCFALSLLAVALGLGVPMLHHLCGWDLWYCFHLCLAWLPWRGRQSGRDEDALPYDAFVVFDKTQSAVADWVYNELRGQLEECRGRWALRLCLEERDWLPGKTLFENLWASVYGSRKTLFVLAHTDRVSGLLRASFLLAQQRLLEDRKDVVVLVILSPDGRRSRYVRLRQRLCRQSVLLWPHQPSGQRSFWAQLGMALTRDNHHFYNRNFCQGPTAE
Briefly: TLR9 inhibition reporter assay (HEK-Blue cells, SEAP reporter, ODN2006 stimulation). Particulars: HEK-Blue cells overexpressing human TLR9, SEAP reporter, ODN2006 5 nM. In a few lines:
as §1

Another experiment deals with T3, human TLR7 (Homo sapiens, UniProt Q9NYK1).
T3 construct: host or cells: HEK-Blue cells (HEK293-derived reporter line)
T3 sequence (Q9NYK1 27-1049): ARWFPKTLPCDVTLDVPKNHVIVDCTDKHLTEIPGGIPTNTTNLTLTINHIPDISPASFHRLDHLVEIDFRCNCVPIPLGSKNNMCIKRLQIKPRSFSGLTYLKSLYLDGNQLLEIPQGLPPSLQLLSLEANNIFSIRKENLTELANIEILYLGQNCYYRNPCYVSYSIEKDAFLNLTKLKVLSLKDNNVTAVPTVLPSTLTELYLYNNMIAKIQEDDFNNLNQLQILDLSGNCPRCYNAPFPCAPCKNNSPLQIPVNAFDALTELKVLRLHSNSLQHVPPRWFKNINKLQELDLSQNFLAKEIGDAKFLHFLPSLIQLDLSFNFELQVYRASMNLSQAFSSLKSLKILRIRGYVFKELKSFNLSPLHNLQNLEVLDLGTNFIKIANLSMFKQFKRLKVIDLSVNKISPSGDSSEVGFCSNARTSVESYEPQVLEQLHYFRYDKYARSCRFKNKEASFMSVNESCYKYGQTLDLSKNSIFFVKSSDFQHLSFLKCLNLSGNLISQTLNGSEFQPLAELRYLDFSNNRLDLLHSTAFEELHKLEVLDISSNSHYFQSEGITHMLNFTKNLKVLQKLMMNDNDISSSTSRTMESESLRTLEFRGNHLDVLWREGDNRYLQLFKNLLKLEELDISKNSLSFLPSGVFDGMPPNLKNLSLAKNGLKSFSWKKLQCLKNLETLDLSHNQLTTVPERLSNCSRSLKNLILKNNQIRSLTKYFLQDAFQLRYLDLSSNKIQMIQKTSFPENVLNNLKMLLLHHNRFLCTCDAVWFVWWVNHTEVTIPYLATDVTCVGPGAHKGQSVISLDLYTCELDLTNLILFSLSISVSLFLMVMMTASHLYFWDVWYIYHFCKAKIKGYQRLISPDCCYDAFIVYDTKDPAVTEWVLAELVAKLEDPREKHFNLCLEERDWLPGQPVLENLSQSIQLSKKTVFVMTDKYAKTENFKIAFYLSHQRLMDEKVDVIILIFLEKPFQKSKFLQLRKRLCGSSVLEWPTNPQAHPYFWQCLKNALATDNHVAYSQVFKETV
Briefly: TLR7 inhibition reporter assay (HEK-Blue cells, SEAP reporter, gardiquimod stimulation). Particulars: HEK-Blue cells overexpressing human TLR7, SEAP reporter, gardiquimod 7.5 μM. In a few lines:
as §1

From patent publication US11739098B2 (BRISTOL-MYERS SQUIBB COMPANY, priority 2017, dated 2023) come the findings set out here.

A word on the IC50: it is the point on the concentration scale where inhibition reaches its midpoint. Low readings indicate greater potency, high ones weaker potency.

With `CC(C)c1c(-c2cc(CO)c3nnnn3c2)[nH]c2ccc(C3CCNCC3)cc12` [Example 71, (6-(3-isopropyl-5-(piperidin-4-yl)-1H-indol-2-yl)tetrazolo[1,5-a]pyridin-8-yl)methanol], the IC50 is 100 to 1000 nM against human TLR8, 1000 to 50000 nM against human TLR9 and < 100 nM at human TLR7.

For the compound `Cc1c(-c2[nH]c3ccc(C4CCNCC4)cc3c2C(C)C)ccc2nnnn12` [Example 72, 6-(3-isopropyl-5-(piperidin-4-yl)-1H-indol-2-yl)-5-methyltetrazolo[1,5-a]pyridine], the half-inhibitory concentration (IC50) was < 100 nM on human TLR8, 1000 to 50000 nM against human TLR9 and 100 to 1000 nM against human TLR7.

As to `Cc1c(-c2[nH]c3ccc(C4CCNCC4)cc3c2C(C)C)cn2nnnc2c1C` [Example 73, 6-(3-isopropyl-5-(piperidin-4-yl)-1H-indol-2-yl)-7,8-dimethyltetrazolo[1,5-a]pyridine], the IC50 against human TLR8 was < 100 nM; against human TLR9, 1000 to 50000 nM; against human TLR7, < 100 nM.

In the case of `Cc1cc(-c2[nH]c3ccc(C4CCNCC4)cc3c2C(C)C)c(C)n2nnnc12` [Example 74, 6-(3-isopropyl-5-(piperidin-4-yl)-1H-indol-2-yl)-5,8-dimethyltetrazolo[1,5-a]pyridine], the IC50 at human TLR8 is < 100 nM; on human TLR9, 1000 to 50000 nM; on human TLR7, < 100 nM.

Turning to `Cc1cc(-c2[nH]c3ccc(C4CCNCC4)cc3c2C(C)C)cn2nnnc12` [Example 75, 6-(3-isopropyl-5-(piperidin-4-yl)-1H-indol-2-yl)-8-methyltetrazolo[1,5-a]pyridine], the values for the IC50 against human TLR8, on human TLR9 and against human TLR7 were < 100 nM, 100 to 1000 nM and < 100 nM, respectively.

`Cc1cc2nnnn2cc1-c1[nH]c2ccc(C3CCNCC3)cc2c1C(C)C` [Example 76, 6-(3-isopropyl-5-(piperidin-4-yl)-1H-indol-2-yl)-7-methyltetrazolo[1,5-a]pyridine]: the IC50 is < 100 nM on human TLR8, 1000 to 50000 nM against human TLR9 and < 100 nM at human TLR7.

With `Cc1nnn2ccc(-c3[nH]c4ccc(C5CCNCC5)cc4c3C(C)C)cc12` [Example 77, 5-(3-isopropyl-5-(piperidin-4-yl)-1H-indol-2-yl)-3-methyl-[1,2,3]triazolo[1,5-a]pyridine], the IC50 on human TLR8 was < 100 nM; against human TLR9 it was 100 to 1000 nM; against human TLR7 it was < 100 nM.

With `Cc1cc(-c2[nH]c3ccc(C4CCNCC4)cc3c2C(C)C)cc2cnnn12` [Example 78, 5-(3-isopropyl-5-(piperidin-4-yl)-1H-indol-2-yl)-7-methyl-[1,2,3]triazolo[1,5-a]pyridine], the half-inhibitory concentration (IC50) against human TLR8 is < 100 nM; at human TLR9, 1000 to 50000 nM; at human TLR7, < 100 nM.

Consider `CC(C)c1c(-c2ccc3cnnn3c2)[nH]c2ccc(C3CCNCC3)cc12` [Example 79, 6-(3-isopropyl-5-(piperidin-4-yl)-1H-indol-2-yl)-[1,2,3]triazolo[1,5-a]pyridine], for which the results for the 50% inhibitory concentration (IC50) at human TLR8, at human TLR9 and at human TLR7 were 100 to 1000 nM, 100 to 1000 nM and < 100 nM, respectively.

On to `CC(C)c1c(-c2ccc3nnnn3c2)[nH]c2ccc(C3CCNCC3)cc12` [Example 80, 6-(3-isopropyl-5-(piperidin-4-yl)-1H-indol-2-yl)tetrazolo[1,5-a]pyridine], for which the IC50 at human TLR8 is 100 to 1000 nM; at human TLR9 it was 1000 to 50000 nM; at human TLR7, < 100 nM.

Take `CC(C)c1c(-c2ccn3nncc3c2)[nH]c2ccc(C3CCNCC3)cc12` [Example 81, 5-(3-isopropyl-5-(piperidin-4-yl)-1H-indol-2-yl)-[1,2,3]triazolo[1,5-a]pyridine]: the IC50 at human TLR8 is 100 to 1000 nM; at human TLR9, 1000 to 50000 nM; on human TLR7 it was < 100 nM.

On to `CC(C)c1c(-c2ccn3nnnc3c2)[nH]c2ccc(C3CCNCC3)cc12` [Example 82, 7-(3-isopropyl-5-(piperidin-4-yl)-1H-indol-2-yl)tetrazolo[1,5-a]pyridine], for which the IC50 was 100 to 1000 nM against human TLR8, 1000 to 50000 nM against human TLR9 and < 100 nM against human TLR7.

On to `CC(C)c1c(-c2ccn3cnnc3c2)[nH]c2ccc(C3CCNCC3)cc12` [Example 83, 7-(3-isopropyl-5-(piperidin-4-yl)-1H-indol-2-yl)-[1,2,4]triazolo[4,3-a]pyridine], for which the IC50 was 100 to 1000 nM against human TLR8, 100 to 1000 nM against human TLR9 and < 100 nM against human TLR7.

In the case of `CC(C)c1c(-c2ccc3c(N)n[nH]c3c2)[nH]c2ccc(C3CCNCC3)cc12` [Example 84, 6-(3-isopropyl-5-(piperidin-4-yl)-1H-indol-2-yl)-1H-indazol-3-amine], the IC50 against human TLR8, at human TLR9 and at human TLR7 was 100 to 1000 nM throughout.

With `CC(C)c1c(-c2ccc3c(N)noc3c2)[nH]c2ccc(C3CCNCC3)cc12` [Example 86, 6-(3-isopropyl-5-(piperidin-4-yl)-1H-indol-2-yl)benzo[d]isoxazol-3-amine], the half-maximal inhibitory concentration (IC50) against human TLR8, on human TLR9 and on human TLR7 was 100 to 1000 nM each time.
